# Read-outs that look alike come from different tables or passages of the source.
# Key:
# Format in all cases: biochemical
# [1] = target: T1, JAK1 (aa 850-1154, catalytic domain, GST-tag) (Homo sapiens, UniProt P23458); assay: JAK kinase assay (HTRF, phosphorylation of TK substrate-biotin), JAK1; details: ATP at Km (7 μM)
# T1 construct: JAK1 (aa 850-1154) and TYK2 (aa 871-1187) are expressed with an N-terminally fused GST-tag; GST (N); purchased Carna Biosciences, Inc; host or cells: baculovirus expression system
# Outline: (§1)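 Baculovirus-expressed catalytic domains phosphorylated 1 μM TK substrate-biotin in 50 mM Hepes pH 7.0 with ATP at Km (JAK1 7 μM, JAK2 4 μM, JAK3 2 μM, TYK2 13 μM) for 20-30 min at RT. EDTA/KF stop, streptavidin-XL665 plus cryptate antibody overnight; HTRF signal gave EC50.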
# [2] = target: T2, JAK2 (catalytic domain, His-tag) (Homo sapiens, UniProt O60674); assay: JAK kinase assay (HTRF, phosphorylation of TK substrate-biotin), JAK2; details: ATP at Km (4 μM)
# T2 construct: All four purified enzymes contain only the catalytic domain; His (N); purchased Carna Biosciences, Inc; host or cells: baculovirus expression system
# Outline: as §1
# [3] = target: T3, JAK3 (catalytic domain, His-tag) (Homo sapiens, UniProt P52333); assay: JAK kinase assay (HTRF, phosphorylation of TK substrate-biotin), JAK3; details: ATP at Km (2 μM)
# T3 construct: All four purified enzymes contain only the catalytic domain; His (N); purchased Carna Biosciences, Inc; host or cells: baculovirus expression system
# Outline: as §1
# [4] = target: T4, TYK2 (aa 871-1187, catalytic domain, GST-tag) (Homo sapiens, UniProt P29597); assay: JAK kinase assay (HTRF, phosphorylation of TK substrate-biotin), TYK2; details: ATP at Km (13 μM)
# T4 construct: JAK1 (aa 850-1154) and TYK2 (aa 871-1187) are expressed with an N-terminally fused GST-tag; GST (N); purchased Carna Biosciences, Inc; host or cells: baculovirus expression system
# T4 sequence (P29597 871-1187): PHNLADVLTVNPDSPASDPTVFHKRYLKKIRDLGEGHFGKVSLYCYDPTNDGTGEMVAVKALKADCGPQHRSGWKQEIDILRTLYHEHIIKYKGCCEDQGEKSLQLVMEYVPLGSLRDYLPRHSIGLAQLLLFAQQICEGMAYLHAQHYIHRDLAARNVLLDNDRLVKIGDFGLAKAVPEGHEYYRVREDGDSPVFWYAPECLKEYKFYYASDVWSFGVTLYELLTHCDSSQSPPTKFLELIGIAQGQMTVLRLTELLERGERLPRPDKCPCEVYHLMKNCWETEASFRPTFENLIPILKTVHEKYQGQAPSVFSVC
# Outline: as §1
# [5] = read-out: JAK1 kinase inhibitory activity (EC50 indicator)
# [6] = read-out: JAK2 kinase inhibitory activity (EC50 indicator)
# [7] = read-out: JAK3 kinase inhibitory activity (EC50 indicator)
# [8] = read-out: TYK2 kinase inhibitory activity (EC50 indicator)
# [9] = HTRF assay, read-out: JAK1 kinase inhibitory activity (EC50 indicator)
# [10] = HTRF assay, read-out: JAK2 kinase inhibitory activity (EC50 indicator)
# [11] = HTRF assay, read-out: JAK3 kinase inhibitory activity (EC50 indicator)
# [12] = HTRF assay, read-out: TYK2 kinase inhibitory activity (EC50 indicator)
# T1 sequence (P23458 850-1154): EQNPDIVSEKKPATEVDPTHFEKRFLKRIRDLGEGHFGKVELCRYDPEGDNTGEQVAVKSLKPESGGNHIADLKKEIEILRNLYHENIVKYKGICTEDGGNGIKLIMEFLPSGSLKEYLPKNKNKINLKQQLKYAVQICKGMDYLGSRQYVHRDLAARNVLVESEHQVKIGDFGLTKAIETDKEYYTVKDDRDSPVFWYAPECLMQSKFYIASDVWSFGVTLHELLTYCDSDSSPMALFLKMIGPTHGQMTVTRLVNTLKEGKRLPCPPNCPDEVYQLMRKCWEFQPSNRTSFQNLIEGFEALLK
# T2 sequence (O60674 849-1124 limits assumed): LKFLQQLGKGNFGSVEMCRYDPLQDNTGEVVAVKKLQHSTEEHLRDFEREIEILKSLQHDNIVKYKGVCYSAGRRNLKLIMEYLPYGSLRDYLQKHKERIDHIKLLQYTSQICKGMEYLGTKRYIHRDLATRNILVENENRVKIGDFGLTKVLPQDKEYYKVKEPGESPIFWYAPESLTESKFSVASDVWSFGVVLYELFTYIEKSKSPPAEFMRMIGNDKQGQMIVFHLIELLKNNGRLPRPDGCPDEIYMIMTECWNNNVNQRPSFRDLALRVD
# T3 sequence (P52333 822-1111 limits assumed): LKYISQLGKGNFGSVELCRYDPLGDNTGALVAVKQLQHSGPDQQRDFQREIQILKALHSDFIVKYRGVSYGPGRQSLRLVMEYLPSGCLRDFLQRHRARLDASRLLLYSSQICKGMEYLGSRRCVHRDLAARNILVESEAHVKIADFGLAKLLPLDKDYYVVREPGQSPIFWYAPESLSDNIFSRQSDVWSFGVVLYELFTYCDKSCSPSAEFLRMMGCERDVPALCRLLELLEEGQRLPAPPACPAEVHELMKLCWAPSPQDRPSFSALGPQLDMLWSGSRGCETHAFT
Compound,"EC50 [1, 5] [nM]","EC50 [2, 6] [nM]","EC50 [3, 7] [nM]","EC50 [4, 8] [nM]","EC50 [1, 9] [nM]","EC50 [2, 10] [nM]","EC50 [3, 11] [nM]","EC50 [4, 12] [nM]",other results
"CC(=O)c1cc(C(=O)N2[C@@H]3CC[C@H]2CN(c2ncnc4[nH]ccc24)C3)cs1 [Example 112, 1-{4-[3-(7H-Pyrrolo[2,3-d]pyrimidin-4-yl)-3,8-diaza-bicyclo[3.2.1]octane-8-carbonyl]-thiophen-2-yl}-ethanone]",< 100,< 100,100 to 500,> 500,,,,,
"O=C(c1cnccn1)N1CCN(c2ccnc3[nH]ccc23)CC12CC2 [Example 225, Pyrazin-2-yl-[7-(1H-pyrrolo[2,3-b]pyridin-4-yl)-4,7-diaza-spiro[2.5]oct-4-yl]-methanone]",,,,,100 to 500,< 100,> 500,> 500,
"CN(C)CCC(=O)N1CCN(c2ncnc3[nH]ccc23)CC12CC2 [Example 457, 3-Dimethylamino-1-[7-(7H-pyrrolo[2,3-d]pyrimidin-4-yl)-4,7-diaza-spiro[2.5]oct-4-yl]-propan-1-one]",,,,,,,,,"EC50 ([1]; HTRF assay, read-out: JAK1 kinase inhibitory activity (EC50)): > 500 nM; EC50 ([2]; HTRF assay, read-out: JAK2 kinase inhibitory activity (EC50)): > 500 nM; EC50 ([3]; HTRF assay, read-out: JAK3 kinase inhibitory activity (EC50)): > 500 nM; EC50 ([4]; HTRF assay, read-out: TYK2 kinase inhibitory activity (EC50)): > 500 nM"
"CC(=O)Nc1ccc(C(=O)N2[C@@H]3CC[C@@H]2CN(c2ncnc4[nH]ccc24)C3)cc1 [Example 354, N-{4-[3-(7H-Pyrrolo[2,3-d]pyrimidin-4-yl)-3,8-diaza-bicyclo[3.2.1]octane-8-carbonyl]-phenyl}-acetamide]",,,,,< 100,< 100,100 to 500,> 500,
"N#Cc1ccc(CC(=O)N2CCN(c3ncnc4[nH]cc(Cl)c34)CC23CC3)cc1 [Example 324, 4-{2-[7-(5-Chloro-7H-pyrrolo[2,3-d]pyrimidin-4-yl)-4,7-diaza-spiro[2.5]oct-4-yl]-2-oxo-ethyl}-benzonitrile]",,,,,< 100,< 100,< 100,> 500,
"COC(=O)c1cc2c(N3CCN(C(=O)Cc4ccc(F)cc4)C4(CC4)C3)ncnc2[nH]1 [Example 337, 4-{4-[2-(4-Fluoro-phenyl)-acetyl]-4,7-diaza-spiro[2.5]oct-7-yl}-7H-pyrrolo[2,3-d]pyrimidine-6-carboxylic acid methyl ester]",,,,,> 500,> 500,> 500,> 500,
"O=C1OCCC1NC(=S)N1[C@@H]2CC[C@H]1CN(c1ncnc3[nH]ccc13)C2 (stereo partly shown) [Example 47, 3-(7H-Pyrrolo[2,3-d]pyrimidin-4-yl)-3,8-diaza-bicyclo[3.2.1]octane-8-carbothioic acid (2-oxo-tetrahydro-furan-3-yl)-amide]",100 to 500,100 to 500,100 to 500,> 500,,,,,
"O=C(c1ccccc1)N1CCN(c2ccnc3[nH]ccc23)CC12CC2 [Example 221, Phenyl-[7-(1H-pyrrolo[2,3-b]pyridin-4-yl)-4,7-diaza-spiro[2.5]oct-4-yl]-methanone]",,,,,< 100,< 100,100 to 500,> 500,
"N#CCc1cccc(CC(=O)N2CCN(c3nc(N)nc4[nH]ccc34)CC23CC3)c1 [Example 306, (3-{2-[7-(2-Amino-7H-pyrrolo[2,3-d]pyrimidin-4-yl)-4,7-diaza-spiro[2.5]oct-4-yl]-2-oxo-ethyl}-phenyl)-acetonitrile]",,,,,100 to 500,100 to 500,100 to 500,> 500,
"COc1cnc2[nH]ccc2c1N1CCN(C(=O)c2ccc(C#N)cc2)C2(CC2)C1 [Example 286, 4-[7-(5-Methoxy-1H-pyrrolo[2,3-b]pyridin-4-yl)-4,7-diaza-spiro[2.5]octane-4-carbonyl]-benzonitrile]",,,,,> 500,> 500,> 500,> 500,
"O=C(c1ccc(S(=O)(=O)C2CCCC2)cc1)N1CCN(c2ncnc3[nH]ccc23)CC12CC2 [Example 407, (4-Cyclopentanesulfonyl-phenyl)-[7-(7H-pyrrolo[2,3-d]pyrimidin-4-yl)-4,7-diaza-spiro[2.5]oct-4-yl]-methanone]",,,,,< 100,< 100,> 500,> 500,
"CS(=O)(=O)c1ccc(C(=O)N2CCN(c3ncnc4[nH]ccc34)CC23CC3)c(F)c1 [Example 183, (2-Fluoro-4-methanesulfonyl-phenyl)-[7-(7H-pyrrolo[2,3-d]pyrimidin-4-yl)-4,7-diaza-spiro[2.5]oct-4-yl]-methanone]",< 100,< 100,< 100,< 100,,,,,
"Nc1nc(N2CCN(C(=O)Cc3ccc(C(F)(F)F)cc3)C3(CC3)C2)c2cc[nH]c2n1 [Example 309, 1-[7-(2-Amino-7H-pyrrolo[2,3-d]pyrimidin-4-yl)-4,7-diaza-spiro[2.5]oct-4-yl]-2-(4-trifluoromethyl-phenyl)-ethanone]",,,,,< 100,< 100,< 100,> 500,
"CC(C)(C#N)C(=O)N1[C@@H]2CC[C@@H]1CN(c1ncnc3[nH]ccc13)C2 [Example 239, 2,2-Dimethyl-3-oxo-3-[3-(7H-pyrrolo[2,3-d]pyrimidin-4-yl)-3,8-diaza-bicyclo[3.2.1]oct-8-yl]-propionitrile]",,,,,100 to 500,100 to 500,100 to 500,> 500,
"Cc1cnc(C(=O)N2[C@@H]3CC[C@H]2CN(c2ncnc4[nH]ccc24)C3)cn1 [Example 74, (5-Methyl-pyrazin-2-yl)-[3-(7H-pyrrolo[2,3-d]pyrimidin-4-yl)-3,8-diaza-bicyclo[3.2.1]oct-8-yl]-methanone]",100 to 500,100 to 500,> 500,> 500,,,,,
"N#Cc1ccccc1CC(=O)N1CCN(c2ncnc3[nH]ccc23)CC12CC2 [Example 113, 2-{2-Oxo-2-[7-(7H-pyrrolo[2,3-d]pyrimidin-4-yl)-4,7-diaza-spiro[2.5]oct-4-yl]-ethyl}-benzonitrile]",100 to 500,< 100,100 to 500,> 500,,,,,
"O=C(c1cccc2[nH]ccc12)N1CCN(c2ncnc3[nH]ccc23)CC12CC2 [Example 159, (1H-Indol-4-yl)-[7-(7H-pyrrolo[2,3-d]pyrimidin-4-yl)-4,7-diaza-spiro[2.5]oct-4-yl]-methanone]",< 100,< 100,100 to 500,100 to 500,,,,,
"COc1cc(C(=O)N2[C@@H]3CC[C@H]2CN(c2ncnc4[nH]ccc24)C3)ccc1S(N)(=O)=O [Example 390, 2-Methoxy-4-[3-(7H-pyrrolo[2,3-d]pyrimidin-4-yl)-3,8-diaza-bicyclo[3.2.1]octane-8-carbonyl]-benzenesulfonamide]",,,,,< 100,< 100,< 100,< 100,
"Cc1cc(S(N)(=O)=O)ccc1C(=O)N1[C@@H]2CC[C@H]1CN(c1ncnc3[nH]ccc13)C2 [Example 391, 3-Methyl-4-[3-(7H-pyrrolo[2,3-d]pyrimidin-4-yl)-3,8-diaza-bicyclo[3.2.1]octane-8-carbonyl]-benzenesulfonamide]",,,,,100 to 500,100 to 500,100 to 500,> 500,
"NS(=O)(=O)c1ccc(C(=O)N2[C@@H]3CC[C@@H]2CN(c2ncnc4[nH]ccc24)C3)cc1 [Example 353, 4-[3-(7H-Pyrrolo[2,3-d]pyrimidin-4-yl)-3,8-diaza-bicyclo[3.2.1]octane-8-carbonyl]-benzenesulfonamide]",,,,,< 100,< 100,< 100,< 100,
"O=C(C1CCOC1)N1C2CCC1CN(c1ncnc3[nH]ccc13)C2 (stereo not shown) [Example 144, [3-(7H-Pyrrolo[2,3-d]pyrimidin-4-yl)-3,8-diaza-bicyclo[3.2.1]oct-8-yl]-(tetrahydro-furan-3-yl)-methanone]",100 to 500,< 100,> 500,> 500,,,,,
"COC(=O)c1cc2c(N3CCN(C(=O)Cc4ccc(C#N)cc4)C4(CC4)C3)ncnc2[nH]1 [Example 124, 4-{4-[2-(4-Cyano-phenyl)-acetyl]-4,7-diaza-spiro[2.5]oct-7-yl}-7H-pyrrolo[2,3-d]pyrimidine-6-carboxylic acid methyl ester]",> 500,> 500,> 500,> 500,,,,,
